Test results taken from PubChem BioAssay AID248 (DTP/NCI, 2004).
Values joined by “and” are separate entries in the source; they are usually repeats but may differ in a detail not shown here. Equal values may be shown once. Toxic doses and inconclusive results are not listed. No stated cut-off is given here; in the data, active means T/C of 150% or more; inactive means T/C below 125%. Peptide text beside a SMILES is read from it. * marks the point of attachment. Cbz = O=C(OCc1ccccc1)*

System: L1210 leukemia ip in BDF1 mice, survival T/C
Assay: NCI In Vivo Anticancer Drug Screen. Data for tumor model L1210 Leukemia (intraperitoneal) in B6D2F1 (BDF1) mice
Conditions: endpoint: mean survival time, higher = longer survival
In short: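 Mice bearing the transplanted tumor received compound or vehicle. Survival of the treated group was divided by that of the vehicle-treated control group to give the ratio.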

[1] = dose: 100.0 mg/kg/injection, schedule: Q01DX001 (ip), vehicle: Klucel (hydroxypropylcellulose) (HPC)
[2] = dose: 100.0 mg/kg/injection, schedule: Q01DX009 (ip), vehicle: Klucel (hydroxypropylcellulose) (HPC)
[3] = dose: 200.0 mg/kg/injection, schedule: Q01DX001 (ip), vehicle: Klucel (hydroxypropylcellulose) (HPC)
[4] = dose: 200.0 mg/kg/injection, schedule: Q01DX009 (ip), vehicle: Klucel (hydroxypropylcellulose) (HPC)
[5] = dose: 400.0 mg/kg/injection, schedule: Q01DX009 (ip), vehicle: Klucel (hydroxypropylcellulose) (HPC)
[6] = dose: 50.0 mg/kg/injection, schedule: Q01DX001 (ip), vehicle: saline
[7] = dose: 100.0 mg/kg/injection, schedule: Q01DX001 (ip), vehicle: saline
[8] = dose: 200.0 mg/kg/injection, schedule: Q01DX001 (ip), vehicle: saline
[9] = dose: 400.0 mg/kg/injection, schedule: Q01DX001 (ip), vehicle: saline
[10] = dose: 25.0 mg/kg/injection, schedule: Q01DX001 (ip), vehicle: Klucel (hydroxypropylcellulose) (HPC)
[11] = dose: 100.0 mg/kg/injection, schedule: Q04DX003 (ip), vehicle: saline
[12] = dose: 200.0 mg/kg/injection, schedule: Q04DX003 (ip), vehicle: saline
[13] = dose: 100.0 mg/kg/injection, schedule: Q04DX003 (ip), vehicle: Klucel (hydroxypropylcellulose) (HPC)
[14] = dose: 200.0 mg/kg/injection, schedule: Q04DX003 (ip), vehicle: Klucel (hydroxypropylcellulose) (HPC)
[15] = dose: 400.0 mg/kg/injection, schedule: Q04DX003 (ip), vehicle: Klucel (hydroxypropylcellulose) (HPC)

Measured: T/C

C[n+]1c(-c2ccccc2)c2cc(N)ccc2c2ccccc21
inactive: dose: 0.2 mg/kg/injection, schedule: Q01DX Z (ip), vehicle: methylcellulose (MC) 108 % of control | dose: 0.3 mg/kg/injection, schedule: Q01DX Z (ip), vehicle: methylcellulose (MC) 113 % of control | dose: 0.5 mg/kg/injection, schedule: Q01DX Z (ip), vehicle: methylcellulose (MC) 102 % of control and 114 % of control | dose: 0.75 mg/kg/injection, schedule: Q01DX Z (ip), vehicle: methylcellulose (MC) 111 % of control | dose: 1.0 mg/kg/injection, schedule: Q01DX Z (ip), vehicle: methylcellulose (MC) 107 % of control and 120 % of control | dose: 1.5 mg/kg/injection, schedule: Q01DX Z (ip), vehicle: methylcellulose (MC) 104 % of control | dose: 1.5 mg/kg/injection, schedule: Q01DX Z (ip), vehicle: saline 111 % of control | dose: 2.0 mg/kg/injection, schedule: Q01DX Z (ip), vehicle: carboxymethylcellulose (CMC) 106 % of control | dose: 2.0 mg/kg/injection, schedule: Q01DX Z (ip), vehicle: methylcellulose (MC) 110 % of control and 113 % of control | dose: 3.0 mg/kg/injection, schedule: Q01DX Z (ip), vehicle: carboxymethylcellulose (CMC) 112 % of control | dose: 3.0 mg/kg/injection, schedule: Q01DX Z (ip), vehicle: methylcellulose (MC) 117 % of control | dose: 3.0 mg/kg/injection, schedule: Q01DX Z (ip), vehicle: saline 117 % of control | dose: 4.0 mg/kg/injection, schedule: Q01DX Z (ip), vehicle: methylcellulose (MC) 121 % of control | dose: 4.4 mg/kg/injection, schedule: Q01DX Z (ip), vehicle: carboxymethylcellulose (CMC) 110 % of control | dose: 6.6 mg/kg/injection, schedule: Q01DX Z (ip), vehicle: carboxymethylcellulose (CMC) 120 % of control | dose: 8.0 mg/kg/injection, schedule: Q01DX Z (ip), vehicle: methylcellulose (MC) 121 % of control and 122 % of control | dose: 10.0 mg/kg/injection, schedule: Q01DX001 (ip), vehicle: saline 100 % of control | dose: 20.0 mg/kg/injection, schedule: Q01DX001 (ip), vehicle: saline 117 % of control | dose: 24.0 mg/kg/injection, schedule: Q01DX Z (ip), vehicle: saline 112 % of control | dose: 40.0 mg/kg/injection, schedule: Q01DX001 (ip), vehicle: saline 100 % of control

CCOC(=O)C(CC(=O)O)C(c1ccccc1)c1ccccc1 (stereo unspecified)
inactive: [1] 99 % of control | [2] 105 % of control and 106 % of control | dose: 100.0 mg/kg/injection, schedule: Q04DX002 (ip), vehicle: Klucel (hydroxypropylcellulose) (HPC) 98 % of control and 103 % of control | [3] 94 % of control | [4] 103 % of control and 105 % of control | dose: 200.0 mg/kg/injection, schedule: Q04DX002 (ip), vehicle: Klucel (hydroxypropylcellulose) (HPC) 98 % of control and 100 % of control | dose: 400.0 mg/kg/injection, schedule: Q01DX001 (ip), vehicle: Klucel (hydroxypropylcellulose) (HPC) 99 % of control | [5] 98 % of control and 118 % of control | dose: 400.0 mg/kg/injection, schedule: Q04DX002 (ip), vehicle: Klucel (hydroxypropylcellulose) (HPC) 98 % of control and 103 % of control

CC(C(=O)O)(c1c[nH]c2ccccc12)c1c[nH]c2ccccc12
inactive: [6] 106 % of control | [7] 103 % of control | [8] 92 % of control | [9] 86 % of control

CC(C)c1ccccc1OS(=O)(=O)c1c(F)c(F)c(F)c(F)c1F
inactive: dose: 6.25 mg/kg/injection, schedule: Q01DX001 (ip), vehicle: Klucel (hydroxypropylcellulose) (HPC) 103 % of control | dose: 6.25 mg/kg/injection, schedule: Q01DX009 (ip), vehicle: saline with Tween-80 108 % of control | dose: 12.5 mg/kg/injection, schedule: Q01DX001 (ip), vehicle: Klucel (hydroxypropylcellulose) (HPC) 97 % of control | dose: 12.5 mg/kg/injection, schedule: Q01DX009 (ip), vehicle: saline with Tween-80 101 % of control | [10] 101 % of control | dose: 25.0 mg/kg/injection, schedule: Q01DX009 (ip), vehicle: saline with Tween-80 103 % of control

O=C(O)c1ccc(Br)cc1
inactive: [11] 89 % of control | [12] 86 % of control

COc1cc(/C(C)=N\N(C)C)ccc1O
inactive: [6] 100 % of control | [7] 96 % of control | [8] 100 % of control | [9] 96 % of control

COC(=O)CNC(=O)C(CC(C)C)NC(=O)C(CC(C)C)NC(=O)C(C)NC(=O)OCc1ccccc1 (stereo unspecified) (Cbz-ALLG-OMe; configuration not given here)
inactive: [11] 94 % of control | [12] 98 % of control | dose: 400.0 mg/kg/injection, schedule: Q04DX003 (ip), vehicle: saline 98 % of control

CCN1C(N)=NC(N)=NC1c1ccccc1 (stereo unspecified)
inactive: [10] 103 % of control | dose: 50.0 mg/kg/injection, schedule: Q01DX001 (ip), vehicle: Klucel (hydroxypropylcellulose) (HPC) 97 % of control | [1] 102 % of control and 103 % of control

N/N=C1/CCc2ccccc21
inactive: [1] 90 % of control | [3] 112 % of control

CCOC(=O)C1CCC(=O)N1C(=O)c1cc([N+](=O)[O-])cc([N+](=O)[O-])c1 (stereo unspecified)
inactive: [13] 97 % of control | [14] 92 % of control | [15] 94 % of control

Cc1ccc(S(=O)(=O)OC2C(C(O)CO)OC3OC(C)(C)OC32)cc1 (stereo unspecified)
inactive: dose: 100.0 mg/kg/injection, schedule: Q04DX002 (ip), vehicle: saline with Tween-80 90 % of control | dose: 200.0 mg/kg/injection, schedule: Q04DX002 (ip), vehicle: saline with Tween-80 97 % of control | dose: 400.0 mg/kg/injection, schedule: Q04DX002 (ip), vehicle: saline with Tween-80 101 % of control

CCN(CC)S(=O)(=O)c1cccc(C(O)CC(O)(C(F)(F)F)C(F)(F)F)c1 (stereo unspecified)
inactive: dose: 100.0 mg/kg/injection, schedule: Q04DX003 (ip), vehicle: other 102 % of control | dose: 200.0 mg/kg/injection, schedule: Q04DX003 (ip), vehicle: other 100 % of control | dose: 400.0 mg/kg/injection, schedule: Q04DX003 (ip), vehicle: other 96 % of control

c1ccc2c(c1)C[N+](=C1CCCCC1)Cc1ccccc1-2
inactive: dose: 25.0 mg/kg/injection, schedule: Q01DX009 (ip), vehicle: saline 103 % of control | dose: 50.0 mg/kg/injection, schedule: Q01DX009 (ip), vehicle: saline 106 % of control | dose: 100.0 mg/kg/injection, schedule: Q01DX009 (ip), vehicle: saline 101 % of control | [11] 99 % of control

OC(Cc1ccccc1)(c1ccccc1)c1cccc2ccccc12 (stereo unspecified)
inactive: [2] 90 % of control | [13] 100 % of control | [4] 95 % of control | [14] 109 % of control | [5] 92 % of control | [15] 97 % of control

O=[N+]([O-])n1cnnc1-c1ccccc1
inactive: dose: 12.5 mg/kg/injection, schedule: Q04DX003 (ip), vehicle: gum acacia 96 % of control | dose: 25.0 mg/kg/injection, schedule: Q04DX003 (ip), vehicle: gum acacia 102 % of control | dose: 50.0 mg/kg/injection, schedule: Q04DX003 (ip), vehicle: gum acacia 98 % of control

COc1cc(N(CCCl)CCCl)c(OC)cc1C=Nc1ccc(-c2csc(Cc3ccccc3)n2)c(Cl)c1
active: dose: 150.0 mg/kg/injection, schedule: Q01DX001 (ip), vehicle: carboxymethylcellulose (CMC) 153 % of control | dose: 300.0 mg/kg/injection, schedule: Q01DX001 (ip), vehicle: carboxymethylcellulose (CMC) 176 % of control and 182 % of control
inactive: dose: 12.5 mg/kg/injection, schedule: Q01DX001 (ip), vehicle: carboxymethylcellulose (CMC) 115 % of control | dose: 25.0 mg/kg/injection, schedule: Q01DX001 (ip), vehicle: carboxymethylcellulose (CMC) 105 % of control | dose: 50.0 mg/kg/injection, schedule: Q01DX001 (ip), vehicle: carboxymethylcellulose (CMC) 108 % of control | dose: 88.0 mg/kg/injection, schedule: Q01DX001 (ip), vehicle: carboxymethylcellulose (CMC) 115 % of control | dose: 88.0 mg/kg/injection, schedule: Q01DX009 (ip), vehicle: carboxymethylcellulose (CMC) 110 % of control | dose: 133.0 mg/kg/injection, schedule: Q01DX009 (ip), vehicle: carboxymethylcellulose (CMC) 94 % of control

C=C1N(S(=O)(=O)c2ccc(C)cc2)C(=O)OC12CCCCC2
inactive: dose: 100.0 mg/kg/injection, schedule: Q01DX009 (ip), vehicle: saline with Tween-80 95 % of control | dose: 200.0 mg/kg/injection, schedule: Q01DX009 (ip), vehicle: saline with Tween-80 103 % of control | dose: 400.0 mg/kg/injection, schedule: Q01DX009 (ip), vehicle: saline with Tween-80 105 % of control
